The values below come from ChEMBL document CHEMBL5131418, “Streptooctatins A and B, fusicoccane-type diterpenoids with autophagic activity from Streptomyces sp. KCB17JA11” (Bioorg Med Chem Lett, 2022).

The test system of data set [1] is HeLa. Kind of data set: Cytotoxicity against human HeLa cells assessed as reduction in cell number at 100 uM. The format is toxicity, cell-based.
In data set [2] the test system is HeLa. Put plainly: Cytotoxicity against human HeLa cells assessed as reduction in cell viability up to 100 uM. The data set is classed as toxicity, cell-based.
For data set [3], the system named is HeLa. Kind of data set: Induction of autophagy in human HeLa cells assessed as increase in LC3-II protein expression level at 10 to 50 uM uM incubated for 24 hrs by western blot analysis. The data set is classed as functional, cell-based. Particulars: dose 10-50 µM. (In general: Immunoblotting shows a protein as a band on a membrane.)
Data set [4] concerns HeLa. Kind of data set: Induction of autophagy in human HeLa cells stably expressing EGFP-LC3 assessed as increase in EGFP-LC3 puncta formation at 25 uM incubated for 24 hrs by fluorescence microscopic analysis. The format is functional, cell-based.

The source made the active and inactive calls. No cut-off for these calls is given here.

In the case of `CCCC(=O)[C@@H](C)[C@H]1O[C@@](O)([C@H](C)C(=O)OC[C@@H](CO)[C@H]2CC[C@]3(C)C[C@@H]4[C@H](CO)C[C@@H](O)[C@H]4[C@@](C)(O)C/C=C/23)[C@H](C)C[C@H]1C`, the Activity result in the data set with HeLa [1] was “Toxic”; in the data set with HeLa [2], “Non-Toxic”. Further, the result in the data set with HeLa [3] and in the data set on HeLa [4] was Active.

In the case of `CC(C)[C@H]1CC[C@]2(C)C[C@@H]3[C@H](CO)C[C@@H](O)[C@H]3[C@@](C)(O)C/C=C/12`, the Activity entry with HeLa [2] is on record as “Non-Toxic”.

Regarding `CCC(=O)[C@@H](C)[C@H]1O[C@@](O)([C@H](C)C(=O)OC[C@@H](CO)[C@H]2CC[C@]3(C)C[C@@H]4[C@H](CO)C[C@@H](O)[C@H]4[C@@](C)(O)C/C=C/23)[C@H](C)C[C@H]1C`, the Activity result was “Toxic” in the data set on HeLa [1] and “Non-Toxic” with HeLa [2]. Further, the result in the data set on HeLa [3] and in the data set on HeLa [4] was Active.
